Source: US11655216B2 (priority 2016, dated 2023)
Read-outs that look alike come from different tables or passages of the source.

Tests used:
[1] = target: T1, glutathione-S-transferase (GST) tagged LXRalpha LBD (ligand binding domain) (Homo sapiens, UniProt Q13133); assay: biochemical
T1 construct: purchased Invitrogen pv4655
T1 sequence (Q13133 209-447 limits assumed): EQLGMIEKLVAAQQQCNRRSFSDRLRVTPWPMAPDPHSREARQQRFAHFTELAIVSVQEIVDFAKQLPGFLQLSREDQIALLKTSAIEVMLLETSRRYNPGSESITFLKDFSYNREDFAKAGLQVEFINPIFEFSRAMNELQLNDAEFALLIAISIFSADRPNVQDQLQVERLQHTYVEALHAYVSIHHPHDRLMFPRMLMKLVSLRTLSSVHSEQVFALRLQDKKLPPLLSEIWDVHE
Procedure, shortened: (§1)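 TR-FRET coactivator recruitment read-out: compounds first received either LBD, followed by a mix of terbium-labelled anti-GST antibody and fluorescein coactivator peptide. Signal measured by time-resolved FRET once plates had incubated at room temperature.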

[2] = target: T2, glutathione-S-transferase (GST) tagged LXRbeta LBD (ligand binding domain) (Homo sapiens, UniProt P55055); assay: LanthaScreen TR-FRET Liver X Receptor Coactivator Assay, LXR beta; assay type: biochemical; conditions: for EC50: LXR beta IP, potency (Inflection Point), compound-induced co-activator recruitment, TR-FRET; for Emax: read-out: LXR beta actiivty at max dose, efficacy (% Emax) in relation to reference dual agonist T0901317
T2 construct: purchased Invitrogen pv4658
T2 sequence (P55055 222-460 limits assumed): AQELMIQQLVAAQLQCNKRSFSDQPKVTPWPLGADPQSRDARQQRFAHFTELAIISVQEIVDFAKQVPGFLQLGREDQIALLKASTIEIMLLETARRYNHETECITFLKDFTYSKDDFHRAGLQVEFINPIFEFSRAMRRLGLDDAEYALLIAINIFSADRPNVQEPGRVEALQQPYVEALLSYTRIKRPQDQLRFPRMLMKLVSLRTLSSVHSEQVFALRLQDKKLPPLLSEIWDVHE
Procedure, shortened: as §1

[3] = potency (Inflection Point), compound-induced co-activator recruitment, TR-FRET
[4] = read-out: LXR alpha actiivty at max dose, efficacy (% Emax) in relation to reference dual agonist T0901317
[5] = LXR alpha IP, potency (Inflection Point), compound-induced co-activator recruitment, TR-FRET
[6] = potency (Inflection Point), compound-induced co-activator recruitment, TR-FRET, read-out: LXR alpha IP

LXR alpha IP [1] | Emax ([1]; read-out: LXR alpha actiivty at max dose) [%] | Structure (SMILES) | LXR alpha IP [1, 3] | Emax [1, 4] [%] | EC50 [2] [nM] | Emax [2] [%] | EC50 [1, 5] [nM] | EC50 [1, 6] [nM] | Emax ([1]; efficacy (% Emax) in relation to reference dual agonist T0901317, read-out: LXR alpha actiivty at max dose) [%]
– | – | CCc1cccc([C@@](O)(C(=O)N2CCC(C[C@H]3C[C@@H](Oc4ccc(C(=O)N(C)C)c(Cl)c4)C3)CC2)C(F)(F)F)c1 (single isomer, unassigned) [Example 37-4, 2-chloro-4-((1R,3s)-3-((1-((R or S)-2-(3-ethylphenyl)-3,3,3-trifluoro-2-hydroxypropanoyl)piperidin-4-yl)methyl)cyclobutoxy)-N,N-dimethylbenzamide] | No IP | 13 | 16 | 120 | – | – | –
– | – | CN(C)C(=O)c1ccc(O[C@H]2C[C@@H](CC3CCN(C(=O)[C@](O)(c4cccc(C5CC5)c4)C(F)(F)F)CC3)C2)cc1Cl (single isomer, unassigned) [Example 37-5, 2-chloro-4-((1R,3s)-3-((1-((R or S)-2-(3-cyclopropylphenyl)-3,3,3-trifluoro-2-hydroxypropanoyl)piperidin-4-yl)methyl)cyclobutoxy)-N,N-dimethylbenzamide] | – | 30 | 6 | 134 | 401 | – | –
– | – | CN(C)C(=O)c1ccc(O[C@H]2C[C@@H](CC3CCN(C(=O)[C@](O)(c4cccc(C(F)(F)F)c4)C(F)(F)F)CC3)C2)cc1Cl (single isomer, unassigned) [Example 37-6, 2-chloro-N,N-dimethyl-4-((1R,3s)-3-((1-((R or S)-3,3,3-trifluoro-2-hydroxy-2-(3-(trifluoromethyl)phenyl)propanoyl)piperidin-4-yl)methyl)cyclobutoxy) benzamide] | – | 31 | 15 | 119 | 602 | – | –
– | – | COc1cccc([C@](O)(C(=O)N2CCC(C[C@H]3C[C@@H](Oc4ccc(C(=O)N(C)C)c(Cl)c4)C3)CC2)C(F)F)c1 (single isomer, unassigned) [Example 37-7, 2-chloro-4-((1R,3s)-3-((1-((R or S)-3,3-difluoro-2-hydroxy-2-(3-methoxyphenyl)propanoyl)piperidin-4-yl)methyl)cyclobutoxy)-N,N-dimethylbenzamide] | No IP | 4 | 32 | 95 | – | – | –
– | – | COc1cccc([C@@](O)(C(=O)N2CCC(C[C@H]3C[C@@H](Oc4ccc(C(=O)N(C)C)c(Cl)c4)C3)CC2)C(F)F)c1 (single isomer, unassigned) [Example 37-8, 2-chloro-4-((1R,3s)-3-((1-((R or S)-3,3-difluoro-2-hydroxy-2-(3-methoxyphenyl)propanoyl)piperidin-4-yl)methyl)cyclobutoxy)-N,N-dimethylbenzamide] | No IP | 0 | 354 | 51 | – | – | –
– | – | CN(C)C(=O)c1ccc(O[C@H]2C[C@@H](CC3CCN(C(=O)[C@](O)(c4cccc(OC(F)F)c4)C(F)(F)F)CC3)C2)cc1Cl (single isomer, unassigned) [Example 37-9, 2-chloro-4-((1R,3s)-3-((1-((R or S)-2-(3-(difluoromethoxy)phenyl)-3,3,3-trifluoro-2-hydroxypropanoyl)piperidin-4-yl)methyl)cyclobutoxy)-N,N-dimethylbenzamide] | – | 25 | 16 | 111 | 1020 | – | –
– | – | CN(C)C(=O)c1ccc(O[C@H]2C[C@@H](CC3CCN(C(=O)[C@](O)(c4cc(F)cc(Cl)c4)C(F)(F)F)CC3)C2)cc1Cl (single isomer, unassigned) [Example 37-10, 2-chloro-4-((1R,3s)-3-((1-((R or S)-2-(3-chloro-5-fluorophenyl)-3,3,3-trifluoro-2-hydroxypropanoyl)piperidin-4-yl)methyl)cyclobutoxy)-N,N-dimethylbenzamide] | – | 46 | 5 | 140 | 318 | – | –
– | – | CN(C)C(=O)c1ccc(OC2CC(CC3CCN(C(=O)[C@](O)(c4ccccc4)C(F)(F)F)CC3)C2)cc1Cl (single isomer, unassigned) [Example 37-11, (R or S)-2-chloro-N,N-dimethyl-4-(3-((1-(3,3,3-trifluoro-2-hydroxy-2-phenylpropanoyl)piperidin-4-yl)methyl)cyclobutoxy) benzamide] | – | 33 | 92 | 113 | – | 563 | –
– | – | Cc1cc(OC2CC(CC3CCN(C(=O)C(O)(c4cccc(OC5CC5)c4)C(F)(F)F)CC3)C2)ccc1C(=O)N(C)C (single isomer, unassigned) [Example 37-12, (R or S)-4-(3-((1-(2-(3-cyclopropoxyphenyl)-3,3,3-trifluoro-2-hydroxypropanoyl)piperidin-4-yl)methyl)cyclobutoxy)-N,N,2-trimethylbenzamide] | No IP | 0 | 63 | 106 | – | – | –
– | – | COc1cccc([C@@](O)(C(=O)N2CCC([C@H]3CC[C@@H](Oc4ccc(C(=O)N(C)C)c(Cl)c4)CC3)CC2)C(F)(F)F)c1 (single isomer, unassigned) [Example 38-1, 2-chloro-N,N-dimethyl-4-((1S,4s)-4-(1-((R or S)-3,3,3-trifluoro-2-hydroxy-2-(3-methoxyphenyl)propanoyl)piperidin-4-yl)cyclohexyloxy)benzamid] | – | 44 | 3 | 89 | 49 | – | –
No IP | 32 | CN(C)C(=O)c1ccc(OCCCC2CCN(C(=O)c3cc(F)ccc3F)CC2)cc1Cl [Example 3-1, 2-chloro-4-(3-(1-(2,5-difluorobenzoyl)piperidin-4-yl)propoxy)-N,N-dimethylbenzamide] | – | – | 501 | 62 | – | – | –
– | – | CN(C)C(=O)c1ccc(OCCCCC2CCN(C(=O)C(C)(C)c3ccccc3)CC2)cc1Cl [Example 3-6, 2-chloro-N,N-dimethyl-4-(4-(1-(2-methyl-2-phenylpropanoyl)piperidin-4-yl)butoxy)benzamide] | No IP | 8 | 77 | 64 | – | – | –
– | – | CN(C)C(=O)c1ccc(OCCCCC2CCN(C(=O)C3(c4ccccc4)CCC3)CC2)cc1Cl [Example 3-7, 2-chloro-N,N-dimethyl-4-(4-(1-(1-phenylcyclobutanecarbonyl)piperidin-4-yl)butoxy)benzamide] | No IP | 0 | 57 | 54 | – | – | –
– | – | CN(C)C(=O)c1ccc(OCCCC2CCN(C(=O)c3c(F)cccc3F)CC2)nc1Cl [Example 3-14, 2-chloro-6-(3-(1-(2,6-difluorobenzoyl)piperidin-4-yl)propoxy)-N,N-dimethylnicotinamide] | No IP | 46 | 160 | 77 | – | – | –
– | – | CN(C)C(=O)c1ccc(OCCCCC2CCN(C(=O)c3c(F)cccc3F)CC2)nc1Cl [Example 3-15, 2-chloro-6-(4-(1-(2,6-difluorobenzoyl)piperidin-4-yl)butoxy)-N,N-dimethylnicotinamide] | No IP | 14 | 328 | 80 | – | – | –
– | – | CCOC(=O)N1CCN(C(=O)c2ccc(OCCCCC3CCN(C(=O)C(O)(c4ccccc4)C(F)(F)F)CC3)nc2Cl)CC1 (stereo not drawn) [Example 3-18, ethyl 4-(2-chloro-6-(4-(1-(3,3,3-trifluoro-2-hydroxy-2-phenylpropanoyl)piperidin-4-yl)butoxy)nicotinoyl) piperazine-l-carboxylate] | – | 33 | 17 | 75 | 498 | – | –
– | – | CN(C)C(=O)c1ccc(OCCCCC2CCN(C(=O)C(O)(c3ccccc3)C(F)(F)F)CC2)nc1C#N (stereo not shown) [Example 4-1, 2-cyano-N,N-dimethyl-6-(4-(1-(3,3,3-trifluoro-2-hydroxy-2-phenylpropanoyl)piperidin-4-yl)butoxy)nicotinamide] | – | 37 | 30 | 77 | 419 | – | –
– | – | CN(C)C(=O)c1ccc(OCCCCC2CCN(C(=O)C(O)(c3ccccn3)C(F)(F)F)CC2)nc1Cl (stereo not shown) [Example 6-1, 2-chloro-N,N-dimethyl-6-(4-(1-(3,3,3-trifluoro-2-hydroxy-2-(pyridin-2-yl)propanoyl)piperidin-4-yl)butoxy)nicotinamide] | – | – | 29 | 73 | – | 1330 | 28
– | – | CN(C)C(=O)c1ccc(OCCCCC2CCN(C(=O)C(O)(c3cccnc3)C(F)(F)F)CC2)nc1Cl (stereo not shown) [Example 6-2, 2-chloro-N,N-dimethyl-6-(4-(1-(3,3,3-trifluoro-2-hydroxy-2-(pyridin-3-yl)propanoyl)piperidin-4-yl)butoxy)nicotinamide] | – | 74 | 8 | 90 | 1230 | – | –
